The target in data set [1] is T1, OATP1B3 (Homo sapiens, UniProt Q9NPD5).
T1 sequence (Q9NPD5 1-702): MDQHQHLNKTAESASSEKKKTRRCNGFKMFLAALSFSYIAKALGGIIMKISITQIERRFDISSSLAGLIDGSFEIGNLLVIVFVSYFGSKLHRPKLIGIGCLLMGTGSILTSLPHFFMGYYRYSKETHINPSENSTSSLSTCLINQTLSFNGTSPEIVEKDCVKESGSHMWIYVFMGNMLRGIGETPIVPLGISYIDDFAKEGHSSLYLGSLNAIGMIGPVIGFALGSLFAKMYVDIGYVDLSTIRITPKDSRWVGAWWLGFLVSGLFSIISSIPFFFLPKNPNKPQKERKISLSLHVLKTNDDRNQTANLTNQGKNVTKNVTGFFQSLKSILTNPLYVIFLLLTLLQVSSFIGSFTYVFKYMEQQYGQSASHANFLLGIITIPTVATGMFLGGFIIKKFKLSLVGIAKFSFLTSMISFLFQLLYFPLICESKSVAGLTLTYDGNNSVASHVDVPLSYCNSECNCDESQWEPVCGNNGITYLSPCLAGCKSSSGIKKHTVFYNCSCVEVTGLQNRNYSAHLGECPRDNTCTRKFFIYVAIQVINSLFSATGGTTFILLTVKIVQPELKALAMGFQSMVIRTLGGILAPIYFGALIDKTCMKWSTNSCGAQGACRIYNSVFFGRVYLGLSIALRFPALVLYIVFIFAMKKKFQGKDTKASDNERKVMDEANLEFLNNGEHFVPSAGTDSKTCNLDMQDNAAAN
As to the kind of experiment: Inhibition of OATP1B3-mediated valsartan uptake in HEK293-OATP1B3 cells. Type of data set: cell-based. The arrangement: host or cells: HEK293. The settings on record: 5 μM valsartan, 5 min. As to the method: Transporter mediated uptake of probe substrates or valsartan was calculated by subtracting the uptake rate of probe substrates or valsartan into HEK293-mock cells from that into HEK293 cells expressing respective transporters.

The conditions of data set [2]: repeated red ginseng extract 3 g/day ref 14, 41; cited from earlier work.
The nature of data set [3]: Protein binding in rat liver homogenate by rapid equilibrium dialysis. Particulars: 10% liver homogenate, rat liver homogenate (10%). It counts as in vitro ADME. Here is the method:
The protein binding of Rb1, Rb2, and Rc (1 μM) in rat plasma and liver homogenate was determined using a rapid equilibrium dialysis kit (ThermoFisher Scientific Korea, Seoul, Korea) according to the manufacturer’s instructions. Briefly, 100 μL of rat plasma and 10% liver homogenate samples containing Rb1, Rb2, or Rc (1 μM) were added to the sample chamber of a semipermeable membrane (molecular weight cut-off 8000 Da) and 300 μL of HBSS was added to the outer buffer chamber. Four hours after incubation at 37 °C on a shaking incubator at 300 rpm, aliquots (50 μL) were collected from both the sample and buffer chambers and treated with equal volumes of fresh HBSS and plasma, respectively, to match the sample matrices. The matrix-matched samples (100 μL) were mixed with 300 μL of 80% ice-cold methanol containing berberine 0.05 ng/mL and 0.1% formic acid for 15 min.
Tissue protein binding was calculated using the following equations, and a dilution factor (D as a value of 10) was used since we used 10% liver homognenates. (2) Diluted free drug fraction fu^′= Drug concentration in buffer chamber/Drug concentration in liver homogenate chamber (3) Undiluted free drug fraction fu= 1/D/1/fu^′−1+1/D= 0.1/1/fu^′−1+0.1
On the technique in general: In equilibrium dialysis free small molecules cross a membrane that holds back macromolecules.

Data set [4] is described as follows: Plasma pharmacokinetics of Rc in rats after repeated iv injection. Type of data set: in vivo. Particulars: rat plasma, Rc 3 mg/kg/day iv for 5 days. Here is the method: The rats were randomly divided into the control and Rc groups. The Rc group was injected with Rc solution (3 mg/mL/kg, dissolved in saline) intravenously via the tail vein for 5 consecutive days. The control group received saline (1 mL/kg) for 5 consecutive days via the tail vein. After 1 h following the last Rc treatment, valsartan was injected intravenously via the femoral vein at 1 mg/kg.

Data set [5] in a line: Plasma and liver distribution of Rc in rats after iv injection. Type of data set: in vivo, rat. Here is the method:
The rats were injected with Rc solution (3 mg/mL/kg, dissolved in saline) via the tail vein. Blood samples were collected from the abdominal artery, and the liver tissue was immediately excised, gently washed with ice-cold saline, and weighed after the rats were euthanized at 2, 12, and 48 h after intravenous injection of Rc. The blood samples were centrifuged (16,000× g, 10 min, 4 °C) and the liver tissue samples were homogenized with four volumes of saline. Aliquots (50 μL each) of plasma and liver homogenates were stored at −80 °C until the analysis of the ginsenoside Rc.

In data set [6] the test system is UGT2B7. The arrangement: method as in PMID 27462006. Particulars: cited from earlier work.
Data set [7] deals with UGT1A3. The arrangement: method as in PMID 27462006. The settings on record: cited from earlier work.
The subject of data set [8] is OATP1B3. The settings on record: cited from earlier work.
In data set [9] the test system is CYP2C9. Also on record: method as in PMID 30078466. Particulars: cited from earlier work.
Data set [10] deals with OATP1B1. Particulars: cited from earlier work.

The text below walks through data of paper PMC7037682, “Herb–Drug Interaction of Red Ginseng Extract and Ginsenoside Rc with Valsartan in Rats” (Molecules, 2020).

Molecules are shown by their SMILES.

Broadly, the IC50 is the point on the concentration scale where inhibition reaches its midpoint. The fraction unbound is free concentration divided by total concentration. Higher therefore signals weak binding. Turning to `CC(C)=CCC[C@](C)(O[C@@H]1O[C@H](CO[C@@H]2OC[C@H](O)[C@H](O)[C@H]2O)[C@@H](O)[C@H](O)[C@H]1O)[C@H]1CC[C@]2(C)[C@@H]1[C@H](O)C[C@@H]1[C@@]3(C)CC[C@H](O[C@@H]4O[C@H](CO)[C@@H](O)[C@H](O)[C@H]4O[C@@H]4O[C@H](CO)[C@@H](O)[C@H](O)[C@H]4O)C(C)(C)[C@@H]3CC[C@]12C` [Rb2, ginsenoside Rb2], the half-inhibitory concentration (IC50) in [1] came out at 5.1 µM. Also, the “maximum concentration in human blood” value in data set [2] is 6.2 to 12.7 nM. The molecule further had an unbound share (fraction unbound) at 4 h, 1 μM in [3] of 0.004.
Usually AUC(0-inf) stands for the area under the concentration-time curve extrapolated to infinity. What is called MRT is the average time that molecules of a dose stay in the body. As a reminder, the half-life is the time needed for the level to fall by half in the phase considered. Take `CC(C)=CCC[C@](C)(O[C@@H]1O[C@H](CO[C@@H]2O[C@@H](CO)[C@H](O)[C@H]2O)[C@@H](O)[C@H](O)[C@H]1O)[C@H]1CC[C@]2(C)[C@@H]1[C@H](O)C[C@@H]1[C@@]3(C)CC[C@H](O[C@@H]4O[C@H](CO)[C@@H](O)[C@H](O)[C@H]4O[C@@H]4O[C@H](CO)[C@@H](O)[C@H](O)[C@H]4O)C(C)(C)[C@@H]3CC[C@]12C` [Rc, ginsenoside Rc]: the IC50 in [1] was determined as 1.9 µM. For the same molecule, in data set [4], the AUC(0-inf) was 1060 ± 325 µM·h, the C0 was 34 ± 5.22 µM, the MRT is 38.5 ± 5.11 h and the half-life was 27.5 ± 4.26 h. In addition, the AUC(0-t) in data set [4] (read-out: AUC24h) turned out to be 749 ± 185 µM·h. Besides, the “maximum concentration in human blood” value in data set [2] was 6.2 to 12.7 nM. For the same molecule, the fraction unbound at 4 h, 1 μM in data set [3] is 0.005. Also, in data set [5] (estimated from concentration and protein binding), the “free Rc concentration in rat liver” value was 0.07 to 0.14 µM. For the same molecule, the Kp in [5] (rat, liver (versus plasma), rats, Rc 3 mg/kg iv, 2, 12 and 48 h, read-out: liver-to-plasma concentration ratio) was 0.13 to 0.2.
With `CC(C)=CCC[C@](C)(O)[C@H]1CC[C@]2(C)[C@@H]1[C@H](O)C[C@@H]1[C@@]3(C)CC[C@H](O[C@@H]4O[C@H](CO)[C@@H](O)[C@H](O)[C@H]4O[C@@H]4O[C@H](CO)[C@@H](O)[C@H](O)[C@H]4O)C(C)(C)[C@@H]3CC[C@]12C` [Rg3, ginsenoside Rg3], the IC50 in data set [6] was 23.1 µM; in data set [7] it was 20.9 µM.
`CC(C)=CCC[C@](C)(O)[C@H]1CC[C@]2(C)[C@@H]1[C@H](O)C[C@@H]1[C@@]3(C)CC[C@H](O[C@@H]4O[C@H](CO)[C@@H](O)[C@H](O)[C@H]4O)C(C)(C)[C@@H]3CC[C@]12C` [Rh2, ginsenoside Rh2]: the IC50 in data set [7] is 37.9 µM.
As to `CC(C)=CCC[C@](C)(O[C@@H]1O[C@H](CO[C@@H]2O[C@H](CO)[C@@H](O)[C@H](O)[C@H]2O)[C@@H](O)[C@H](O)[C@H]1O)[C@H]1CC[C@]2(C)[C@@H]1[C@H](O)C[C@@H]1[C@@]3(C)CC[C@H](O[C@@H]4O[C@H](CO)[C@@H](O)[C@H](O)[C@H]4O[C@@H]4O[C@H](CO)[C@@H](O)[C@H](O)[C@H]4O)C(C)(C)[C@@H]3CC[C@]12C` [Rb1, ginsenoside Rb1], the IC50 in data set [1] is 4.1 µM; in data set [8], 4.8 µM; in data set [9], 2.4 µM; in data set [10], 33.2 µM. Moreover, the “maximum concentration in human blood” value in data set [2] is 6.2 to 12.7 nM. This molecule showed a fraction unbound at 4 h, 1 μM in [3] of 0.004.
